Assay results taken from the supplement of paper PMC10307832.

Assays:
Experiment in all cases: relative viability (nuclei count vs DMSO), 5 days (fraction); higher = more cells survive
Zosuquidar + Decitabine = compound: O[C@@H](COc1cccc2ncccc12)CN1CCN([C@@H]2c3ccccc3[C@@H]3[C@H](c4ccccc42)C3(F)F)CC1 [Zosuquidar] + Nc1ncn([C@H]2C[C@H](O)[C@@H](CO)O2)c(=O)n1 [Decitabine] (partner 2 µM)
Summary of the method: (§1)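 Lung cancer cell lines, seeded in 1536-well plates, were treated the following day by pin tool with a single drug or with five library-drug doses (not always all listed) in √10 steps on top of a fixed anchor-drug dose. Cells were fixed and nuclei stained in one step after 5 days, and nuclei were counted. Relative viability is the nuclei count for treated wells divided by that for vehicle wells, reported as medians of duplicate plates.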

Zosuquidar + Tozasertib = compound: O[C@@H](COc1cccc2ncccc12)CN1CCN([C@@H]2c3ccccc3[C@@H]3[C@H](c4ccccc42)C3(F)F)CC1 [Zosuquidar] + Cc1cc(Nc2cc(N3CCN(C)CC3)nc(Sc3ccc(NC(=O)C4CC4)cc3)n2)n[nH]1 [Tozasertib] (partner 0.1 µM)
Summary of the method: as §1

Kobe2602 + Foretinib = compound: C1=CC(=CC=C1NC(=S)NNC2=C(C=C(C=C2[N+](=O)[O-])C(F)(F)F)[N+](=O)[O-])F [Kobe2602] + COc1cc2c(Oc3ccc(NC(=O)C4(C(=O)Nc5ccc(F)cc5)CC4)cc3F)ccnc2cc1OCCCN1CCOCC1 [Foretinib] (partner 0.25 µM)
Summary of the method: as §1

[1] = compound: COc1cc2nccc(Oc3ccc(NC(=O)C4(C(=O)Nc5ccc(F)cc5)CC4)cc3)c2cc1OC [Cabozantinib] + Nc1nc2[nH]cc(CCc3ccc(C(=O)N[C@@H](CCC(=O)O)C(=O)O)cc3)c2c(=O)[nH]1 [Pemetrexed] (partner 0.2 µM)
Summary of the method: as §1

Cell Line	relative viability (Zosuquidar + Decitabine; first compound 0.01 µM)	relative viability (Zosuquidar + Decitabine; first compound 0.03162 µM)	relative viability (Zosuquidar + Decitabine; first compound 0.3162 µM)	relative viability (Zosuquidar + Decitabine; first compound 1 µM)	relative viability (Zosuquidar + Tozasertib; first compound 0.01 µM)	relative viability (Zosuquidar + Tozasertib; first compound 0.03162 µM)	relative viability (Zosuquidar + Tozasertib; first compound 0.1 µM)	relative viability (Zosuquidar + Tozasertib; first compound 0.3162 µM)	relative viability (Zosuquidar + Tozasertib; first compound 1 µM)	relative viability (Kobe2602 + Foretinib; first compound 0.2 µM)	relative viability (Kobe2602 + Foretinib; first compound 0.6325 µM)	relative viability (Kobe2602 + Foretinib; first compound 2 µM)	relative viability (Kobe2602 + Foretinib; first compound 6.325 µM)	relative viability (Kobe2602 + Foretinib; first compound 20 µM)	relative viability ([1]; first compound 0.02 µM)	relative viability ([1]; first compound 0.06325 µM)	relative viability ([1]; first compound 0.2 µM)	relative viability ([1]; first compound 0.6325 µM)	relative viability ([1]; first compound 2 µM)	relative viability (Zosuquidar + Decitabine; first compound 0.1 µM)
NCI-H1993	0.609	0.615	0.583	0.546	0.564	0.5	0.578	0.595	0.541	0.789	0.748	0.689	0.687	0.642	0.486	0.507	0.484	0.561	0.662	
LK-2	0.247	0.361	0.372	0.304	0.171	0.163	0.174	0.172	0.183	1.48	1.74	1.28	1.14	1.41		0.427	0.236	0.266	0.296	0.28
SW 1573	0.372	0.508	0.598	0.591	0.171	0.147	0.14	0.182	0.157	1.02	0.873	0.998	1	1.18	0.905	0.815	0.924	0.951	0.763	0.568
NCI-H1915	0.278	0.252	0.288	0.269	0.406	0.453	0.447	0.461	0.405	1.11	1.09	1.08	1.02	1.06	0.532	0.51	0.507	0.505	0.459	0.279
NCI-H661	0.557	0.54	0.516	0.523	0.354	0.313	0.353	0.328	0.33	0.869	1.01	0.99	1.02	1.03	0.959	0.941	0.981	0.939	1.07	0.595
NCI-H520	0.505	0.523	0.472	0.47	0.413	0.441		0.392	0.416	0.701	0.846	0.738	0.708	0.892	0.625	0.747	0.667	0.63	0.552	0.395
COR-L 105	0.645	0.712	0.716	0.652	0.293	0.315	0.402	0.309	0.333	0.986	1.02	0.867	1.1	0.979	1.1	1.19	0.9	0.999	1.02	0.636
NCI-H2009	0.348	0.338	0.327	0.344	0.538	0.518	0.574	0.46	0.436	1.15	1.32	1.21	1.19	1.19	1.08	1.07	1.02	1	1.08	0.376
NCI-H1563										0.996	0.928	0.964	1.02	0.996	0.645	0.869	0.984	0.684	0.802	
RERF-LC-KJ	0.717	0.727	0.776	0.691	0.501	0.552	0.505	0.519	0.428	0.878	0.952	0.828	0.777	0.763	0.471	0.463	0.402	0.347	0.463	0.691
NCI-H1703										0.404	0.349	0.4	0.321	0.329						
EBC-1										0.116	0.108	0.113	0.0943	0.111						
NCI-H1792	0.545	0.532	0.584	0.556												1.27	0.868	0.986	0.608	0.603
ABC-1	1.27	1.15	1.24	1.15	0.143	0.172	0.194	0.234	0.178	0.957	0.922		0.93	1.3						1.15
NCI-H1648	0.427	0.612	0.455	0.489	0.602		0.316	0.497	0.562						0.73	0.908		0.793	0.82	0.434
A549	0.264	0.116	0.318	0.301						0.955	0.991	0.908	0.924	0.958						
NCI-H1299										1.06	1.09	1.05	1.13	1.03						
NCI-H1623					0.43	0.33	0.435	0.421	0.407	0.966	0.954	0.79	0.809	0.854						
NCI-H2228					0.213	0.272	0.252	0.208	0.272	0.923	0.806	0.734	0.817	0.862	0.348	0.305	0.338	0.283	0.276	
HCC-44	0.981	0.961	0.934	0.919	0.965	1.13	1.17	1.01	0.889						0.659	0.609	0.735	0.701	0.724	1
NCI-H522	0.681	0.624	0.618	0.657	0.536	0.537	0.585	0.601	0.556						1.16	0.972	0.943	1.25	0.934	0.643
Calu-6										0.858	0.935	0.894	0.86	0.875						
